Measured values taken from patent US8318455B2, “Inducible/regulated gene expression system in E coli” (priority 2007, dated 2012).
Read-outs that look alike come from different tables or passages of the source.

Legend:
[1] = tested on: GFP expression in E. coli BL21(DE3)pLysS; assay type: cell-based, Escherichia coli; conditions: for GFP yield / course of induced GFP expression (time of maximum): 100 μm inducer; for state of the induced culture (lysis, foaming): fermenter culture, after 8 hours post induction; for specific yield of GFP / total yield of GFP: defined medium A; for course of induced GFP expression (time of maximum): post induction, FIG. 10A
Method: Benchtop Fermentations. Batch fermentation experiments were carried out in a 14-I bioreactor (BioFlo 110, New Brunswick Scientific, Edison, N.J. USA) to compare GFP production yield between T7 expression system and cumate system. For the batch culture, pre-cultures were used to inoculate the bioreactor filled with 5 l of medium A (Yoon et al, 2003) and initial O.D. was adjusted to 0.1 for both expression systems. The cultures induced with IPTG for T7 system and cumate for cumate system when O.D. reached at 38 to 42. For cultures carried out in bioreactors, pH and dissolved oxygen were controlled at 7 and 25%, respectively.
(§1) Detection of gene expression. Detection of GFP was carried out by fluorescence microscopy, and quantified by using a SPECTRAFluor Plus (TECAN Austria Gmbh, Grodïg, Austria) under excitation and emission wavelengths of 485 and 508 nm, respectively. Concentration of GFP was calculated based on a linear relationship between concentration and fluorescence units determined using solutions of purified GFP (Qbiogene). The biomass (X) was determined by cell dry weight measurement of the samples (Moisture Analyzer MA 30, Sartorius).
All results obtained were in defined medium A. The value ‘x’ is dry weight in g/L.
All results obtained were in defined medium A.

[2] = tested on: GFP expression in host cells; assay: Plate assay: GFP expression, T7 system vs cumate system; assay type: cell-based, Escherichia coli; conditions: plates with IPTG (1 mM) or cumate (0.12 mM); FIG. 4
Method: Host cell transformation and gene expression. pNEW vectors harbouring different genes of interest were transformed into various E. coli cells by chemical or electroporation methods (Sambrook and Russell, 2000). The transformed cells were grown at 37° C. in LB medium, and expression of genes under developed system was induced with 20 μg/ml cumate or as indicated.
as §1
FIG. 4 depicts a comparison between T7 system and cumate system for GFP expression in plates containing IPTG (1 mM) and cumate (0.12 mM) as inducer, respectively.

[3] = 45 minutes post induction, FIG. 9C
[4] = 2 hours post induction, FIG. 9E
[5] = 3 hours post induction, FIG. 9F
[6] = inducer 100 μM, induction time 1 h
[7] = inducer 100 μM, induction time 2 h
[8] = inducer 100 μM, induction time 4 h
[9] = inducer 100 μM, induction time 5 h
[10] = inducer 100 μM, induction time 6 h
[11] = inducer 100 μM, induction time 7 h
[12] = inducer 100 μM, induction time 8 h
[13] = inducer 100 μM, induction time 9 h
[14] = inducer 1000 μM, induction time 1 h
[15] = inducer 1000 μM, induction time 2 h
[16] = inducer 1000 μM, induction time 4 h
[17] = inducer 1000 μM, induction time 5 h
[18] = inducer 1000 μM, induction time 6 h
[19] = inducer 1000 μM, induction time 7 h
[20] = inducer 1000 μM, induction time 8 h
[21] = inducer 1000 μM, induction time 9 h

SMILES | GFP yield [1, 3] [mg/g] | GFP yield ([1]; 1 hour post induction, FIG. 9D) [mg/g] | GFP yield [1, 4] [mg/g] | GFP yield [1, 5] [mg/g] | state of the induced culture (lysis, foaming) [1] | specific yield of GFP [1, 6] [mg/g x] | total yield of GFP [1, 6] [mg/L] | specific yield of GFP [1, 7] [mg/g x] | total yield of GFP [1, 7] [mg/L] | specific yield of GFP [1, 8] [mg/g x] | total yield of GFP [1, 8] [mg/L] | specific yield of GFP [1, 9] [mg/g x] | total yield of GFP [1, 9] [mg/L] | specific yield of GFP [1, 10] [mg/g x] | total yield of GFP [1, 10] [mg/L] | specific yield of GFP [1, 11] [mg/g x] | total yield of GFP [1, 11] [mg/L] | specific yield of GFP [1, 12] [mg/g x] | total yield of GFP [1, 12] [mg/L] | specific yield of GFP [1, 13] [mg/g x] | further results
CC(C)c1ccc(C(=O)O)cc1 [Cumate, p-cumate] | 30 | 38 | 84 | 123 | no lysis occurred | 38 | 602 | 84 | 644 | 123 | 3002 | 164 | 4719 | 176 | 5443 | 165 | 6194 | 193 | 6977 | 222 | cumate induced GFP yield relative to IPTG induced culture ([1]; cultures induced with 1000 μM IPTG or cumate): more than double; total yield of GFP [1, 13]: 7838 mg/L; specific yield of GFP [1, 14]: 36 mg/g x; total yield of GFP [1, 14]: 486 mg/L; specific yield of GFP [1, 15]: 71 mg/g x; total yield of GFP [1, 15]: 1459 mg/L; specific yield of GFP [1, 16]: 110 mg/g x; total yield of GFP [1, 16]: 2851 mg/L; specific yield of GFP [1, 17]: 141 mg/g x; total yield of GFP [1, 17]: 4593 mg/L; specific yield of GFP [1, 18]: 149 mg/g x; total yield of GFP [1, 18]: 4885 mg/L; specific yield of GFP [1, 19]: 155 mg/g x; total yield of GFP [1, 19]: 5989 mg/L; specific yield of GFP [1, 20]: 249 mg/g x; total yield of GFP [1, 20]: 9666 mg/L; specific yield of GFP [1, 21]: 289 mg/g x; total yield of GFP [1, 21]: 11150 mg/L; course of induced GFP expression (time of maximum) [1]: > 8 h; GFP expression on plates, comparison of systems [2]: dramatically outperforms the IPTG system
CC(C)S[C@@H]1O[C@H](CO)[C@H](O)[C@H](O)[C@H]1O [IPTG, isopropyl-beta-D-thiogalactopyranoside] | 27 | 37 | 74 | 90 | quickly began to lyse | 37 | 554 | 74 | 1300 | 90 | 1778 | 96 | 2486 | 85 | 2035 | 58 | 1567 | 68 | 1948 | 67 | total yield of GFP [1, 13]: 2090 mg/L; specific yield of GFP [1, 14]: 37 mg/g x; total yield of GFP [1, 14]: 606 mg/L; specific yield of GFP [1, 15]: 60 mg/g x; total yield of GFP [1, 15]: 1191 mg/L; specific yield of GFP [1, 16]: 83 mg/g x; total yield of GFP [1, 16]: 1966 mg/L; specific yield of GFP [1, 17]: 103 mg/g x; total yield of GFP [1, 17]: 2464 mg/L; specific yield of GFP [1, 18]: 118 mg/g x; total yield of GFP [1, 18]: 3340 mg/L; specific yield of GFP [1, 19]: 135 mg/g x; total yield of GFP [1, 19]: 4238 mg/L; specific yield of GFP [1, 20]: 145 mg/g x; total yield of GFP [1, 20]: 4079 mg/L; course of induced GFP expression (time of maximum) [1]: 4 h
